Measured values: patent US12187742B2 (XRAD Therapeutics, Inc., priority 2018, dated 2025)
Where a name gives a salt, the structure may show the parent alone.

Tests used:
ATM = ATM (Homo sapiens (Human), UniProt Q13315); assay: ATM in Cell Western Assay (pKAP1 in etoposide-treated MCF-7 cells); assay type: cell-based
Summary of the method: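 After paraformaldehyde fixation and Triton X-100 permeabilization, immunostained plates were read by infrared scanning (ODYSSEY CLx). Compound was given as 10 doses, 3-fold dilutions from a 1 μM final top concentration.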

DNA-PK = DNA-PK (Homo sapiens (Human), UniProt P78527); assay: DNA-PK Enzyme-Linked Immunosorbent Assay (phosphorylation of GST-p53 (1-101) peptide); assay type: biochemical; details: ELISA
Description: Assay of Compounds ATM and DNA-PK Inhibition
remove wash solution, turn plate upside down onto a thin paper towel and centrifuge at 1000 rpm for 1 min to absorb all wash buffer. Clean the bottom of plate with moist lint free paper. Scan plate immediately using ODYSSEY CLx (LI-COR) for the best results. DNA-PK Enzyme-Linked Immunosorbent Assay:
On day one, coat 96-well plate (ThermoFisher. Cat #: 442404) with GST-p53 (1-101) peptide (purified by Pharmaron, BCS department) by diluting 3 μg of GST-p53 each well with 0.1 M Na2CO3/NaHCO3, pH 9.6. Incubate the plate overnight at 4° C. The second day, remove coating buffer, wash 2× with PBST (1×PBS containing 0.1% Tween-20). Then add DNA-PK enzyme solution (Invitrogen, #PR9107A; the final DNA-PK concentration is 0.1 μg/mL), series dilution compounds (the final top concentration is 100 nM, 3 fold series dilution, with total 10 doses) and ATP solution (the final ATP concentration is 20 μM) to the 96-well plate. Incubate the plate at 25° C. for 1 hour. Then wash 3× with PBST (1×PBS containing 0.1% Tween-20). Block the plate with PBST+ 1% BSA at 4° C. overnight. The third day, wash 4× with PBST (1×PBS containing 0.1% Tween-20). Then add Phospho-p53 primary antibody (cell signaling Technology, #9286, Phospho-p53 (Ser15) (16G8) Mouse mAb) (1/1000) to each well. Seal with plate and incubate the plate for 1 h at 37° C. Wash 4× with PBST (1×PBS containing 0.1% Tween-20), add 100 μL of HRP-linked secondary antibody (Cell signaling Technology, #7076, Anti-mouse IgG, HRP-linked Antibody) (1/1000) to each well. Seal with tape and incubate the plate for 30 min at 37° C. Wash 4× with PBST (1×PBS containing 0.1% Tween-20), add 100 μL of TMB (Cell signaling Technology, #7004) substrate to each well. Seal with tape and incubate the plate for 10 min at 37° C. Then add 100 μL of Stop solution (Cell signaling Technology, #7002) to each well. Read the plate at 450 nm to detect absorption.

[1] = pKAP1 in etoposide-treated MCF-7 cells
[2] = MCF-7 cells, etoposide 100 μM, 1 hr, pKAP1 readout

ATM, sequence (Q13315 whole entry): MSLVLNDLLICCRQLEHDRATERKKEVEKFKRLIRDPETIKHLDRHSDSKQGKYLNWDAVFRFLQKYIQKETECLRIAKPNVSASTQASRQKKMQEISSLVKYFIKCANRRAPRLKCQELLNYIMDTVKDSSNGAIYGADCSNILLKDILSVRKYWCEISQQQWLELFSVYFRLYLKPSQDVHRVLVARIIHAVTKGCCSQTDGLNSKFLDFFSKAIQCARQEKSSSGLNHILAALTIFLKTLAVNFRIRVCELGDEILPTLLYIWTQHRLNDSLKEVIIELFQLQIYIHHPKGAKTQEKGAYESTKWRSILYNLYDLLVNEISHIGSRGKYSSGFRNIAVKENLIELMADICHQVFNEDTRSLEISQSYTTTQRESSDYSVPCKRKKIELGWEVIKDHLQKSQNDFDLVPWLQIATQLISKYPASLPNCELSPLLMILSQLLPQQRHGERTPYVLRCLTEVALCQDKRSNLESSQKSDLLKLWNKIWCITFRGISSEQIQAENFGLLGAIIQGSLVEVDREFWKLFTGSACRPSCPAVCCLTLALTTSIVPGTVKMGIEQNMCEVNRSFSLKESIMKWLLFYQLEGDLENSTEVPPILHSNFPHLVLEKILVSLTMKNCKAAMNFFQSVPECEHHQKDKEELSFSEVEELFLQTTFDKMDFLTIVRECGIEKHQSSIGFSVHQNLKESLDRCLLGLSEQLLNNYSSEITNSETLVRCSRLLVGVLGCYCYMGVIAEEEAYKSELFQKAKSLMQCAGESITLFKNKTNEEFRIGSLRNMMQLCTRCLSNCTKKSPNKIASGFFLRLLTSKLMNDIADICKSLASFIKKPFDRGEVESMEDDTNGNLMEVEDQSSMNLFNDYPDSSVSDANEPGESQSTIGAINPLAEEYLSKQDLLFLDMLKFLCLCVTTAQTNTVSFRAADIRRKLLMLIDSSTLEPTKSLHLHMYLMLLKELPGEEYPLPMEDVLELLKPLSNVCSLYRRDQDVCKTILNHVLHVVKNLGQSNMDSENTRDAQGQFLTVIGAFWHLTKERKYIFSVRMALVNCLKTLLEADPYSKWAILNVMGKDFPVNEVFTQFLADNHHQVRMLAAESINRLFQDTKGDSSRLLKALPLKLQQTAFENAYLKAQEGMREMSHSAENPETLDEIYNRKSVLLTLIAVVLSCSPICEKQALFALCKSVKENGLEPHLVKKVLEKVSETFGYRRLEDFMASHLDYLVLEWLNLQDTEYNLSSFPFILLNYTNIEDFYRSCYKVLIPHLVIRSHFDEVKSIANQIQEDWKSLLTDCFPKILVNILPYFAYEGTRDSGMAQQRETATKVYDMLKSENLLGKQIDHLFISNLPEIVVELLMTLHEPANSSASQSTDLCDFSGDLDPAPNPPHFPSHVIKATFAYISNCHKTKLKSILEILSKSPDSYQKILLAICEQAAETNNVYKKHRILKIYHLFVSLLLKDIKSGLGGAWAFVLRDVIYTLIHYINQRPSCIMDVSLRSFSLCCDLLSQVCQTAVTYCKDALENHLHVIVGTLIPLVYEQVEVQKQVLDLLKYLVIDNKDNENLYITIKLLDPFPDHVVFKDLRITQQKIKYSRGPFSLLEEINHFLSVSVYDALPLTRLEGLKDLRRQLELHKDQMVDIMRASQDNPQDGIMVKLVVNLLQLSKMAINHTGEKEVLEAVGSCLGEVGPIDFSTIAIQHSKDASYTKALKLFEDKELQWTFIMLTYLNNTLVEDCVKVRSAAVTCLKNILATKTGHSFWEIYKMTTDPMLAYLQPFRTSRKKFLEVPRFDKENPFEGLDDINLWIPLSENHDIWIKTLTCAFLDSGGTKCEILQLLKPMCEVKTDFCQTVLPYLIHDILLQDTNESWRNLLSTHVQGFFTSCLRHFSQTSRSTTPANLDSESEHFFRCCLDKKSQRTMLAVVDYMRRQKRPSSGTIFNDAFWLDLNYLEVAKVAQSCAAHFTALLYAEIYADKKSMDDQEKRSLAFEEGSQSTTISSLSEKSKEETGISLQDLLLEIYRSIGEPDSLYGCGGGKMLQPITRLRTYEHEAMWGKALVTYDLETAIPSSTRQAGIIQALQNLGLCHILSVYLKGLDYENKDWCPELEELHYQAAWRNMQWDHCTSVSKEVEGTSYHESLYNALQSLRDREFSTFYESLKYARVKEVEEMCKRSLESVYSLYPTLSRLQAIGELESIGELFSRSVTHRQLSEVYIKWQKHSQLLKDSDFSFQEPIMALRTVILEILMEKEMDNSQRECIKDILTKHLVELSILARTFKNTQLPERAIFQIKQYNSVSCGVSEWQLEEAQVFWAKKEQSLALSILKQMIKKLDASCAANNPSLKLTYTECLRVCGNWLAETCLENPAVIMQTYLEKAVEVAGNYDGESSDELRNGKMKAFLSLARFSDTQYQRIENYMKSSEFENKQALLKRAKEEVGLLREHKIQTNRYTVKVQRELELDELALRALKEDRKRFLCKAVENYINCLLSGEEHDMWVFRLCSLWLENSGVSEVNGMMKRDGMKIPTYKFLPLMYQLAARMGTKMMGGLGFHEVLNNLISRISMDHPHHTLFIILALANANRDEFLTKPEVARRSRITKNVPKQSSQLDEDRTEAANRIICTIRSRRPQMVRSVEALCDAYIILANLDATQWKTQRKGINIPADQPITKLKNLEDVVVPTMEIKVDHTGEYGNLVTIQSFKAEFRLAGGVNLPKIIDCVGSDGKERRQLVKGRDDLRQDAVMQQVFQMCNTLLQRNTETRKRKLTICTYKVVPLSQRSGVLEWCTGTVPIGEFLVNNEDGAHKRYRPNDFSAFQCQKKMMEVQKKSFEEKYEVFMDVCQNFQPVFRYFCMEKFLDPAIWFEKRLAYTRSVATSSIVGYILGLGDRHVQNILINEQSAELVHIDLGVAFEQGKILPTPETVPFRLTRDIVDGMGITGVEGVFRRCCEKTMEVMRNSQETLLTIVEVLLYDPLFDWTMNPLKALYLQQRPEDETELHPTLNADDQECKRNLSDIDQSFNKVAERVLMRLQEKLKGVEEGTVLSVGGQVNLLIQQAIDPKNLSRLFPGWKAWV

IC50 (ATM; [1]) [nM]	IC50 (DNA-PK; 20 μM ATP) [nM]	IC50 (ATM; [2]) [nM]	IC50 (DNA-PK; ATP 20 μM) [nM]	Compound
1 to 100	1 to 100	–	–	CN1C(=O)C2(CCC2)c2c1cnc1ccc(-c3cnc(N4CCC(N(C)C)C4)c(NS(C)(=O)=O)c3)cc21 (racemic) [Example 351, (rac)-N-(2-(3-(Dimethylamino)pyrrolidin-1-yl)-5-(3′-methyl-2′-oxo-2′,3′-dihydrospiro[cyclobutane-1,1′-pyrrolo[2,3-c]quinolin]-8′-yl)pyridin-3-yl)methanesulfonamide]
1 to 100	1 to 100	–	–	CN1C(=O)C2(CCC2)c2c1cnc1ccc(-c3cnc(N4CCC(N5CCCCC5)C4)c(NS(C)(=O)=O)c3)cc21 (racemic) [Example 352, (rac)-N-(5-(3′-Methyl-2′-oxo-2′,3′-dihydrospiro[cyclobulane-1,1′-pyrrolo[2,3-c]quinolin]-8′-yl)-2-(3-(piperidin-1-yl)pyrrolidin-1-yl)pyridin-3-yl)methanesulfonamide hydrochloride]
–	–	1 to 100	1 to 100	CN(C)CCCOc1ccc(-c2ccc3ncc4c(c3c2)C2(CC2)C(=O)N4C)cn1 [Example 1, 8′-(6-(3-(Dimethylamino)propoxy)pyridin-3-yl)-3′-methylspiro [cyclopropane-1,1′-pyrrolo[2,3-c]quinolin]-2′(3′-H)-one]
–	–	1 to 100	1 to 100	CN(C)CCCOc1ncc(-c2ccc3ncc4c(c3c2)C2(CCCC2)C(=O)N4C)cc1NS(=O)(=O)c1ccccc1 [Example 2, N-(2-(3-(Dimethylamino)propoxy)-5-(3′-methyl-2′-oxo-2′,3′-dihydrospiro[cyelopentane-1,1′-pyrrolo[2,3-c]quinolin]-8′-yl)pyridin-3-yl) benzenesulfonamide]
–	–	1 to 100	1 to 100	CN(C)CCCOc1ncc(-c2ccc3ncc4c(c3c2)C2(CCCCC2)C(=O)N4C)cc1NS(=O)(=O)c1ccccc1 [Example 3, N-(2-(3-(Dimethylamino)propoxy)-5-(3′-methyl-2′-oxo-2′,3′-dihydrospiro[cyclohexane-1,1′-pyrrolo[2,3-c]quinolin]-8′-yl)pyridin-3-yl) benzenesulfonamide]
–	–	< 0.5	< 0.5	CN(C)CCCOc1ncc(-c2ccc3ncc4c(c3c2)C2(CC2)C(=O)N4C)cc1NS(=O)(=O)c1ccccc1 [Example 4, N-(2-(3-(Dimethylamino)propoxy)-5-(3′-methyl-2′-oxo-2′,3′-dihydrospiro[cyclopropane-1,1′-pyrrolo[2,3-c]quinolin]-8′-yl)pyridin-3-yl)benzenesulfonamide]
–	–	1 to 100	< 0.5	CN(C)CCCOc1ncc(-c2ccc3ncc4c(c3c2)C2(CCC2)C(=O)N4C)cc1NS(=O)(=O)c1ccccc1 [Example 5, N-(2-(3-(Dimethylamino)propoxy)-5-(3′-methyl-2′-oxo-2′,3′-dihydrospiro [cyclobutane-1,1′-pyrrolo [2,3-c]quinolin]-8′-yl)pyridin-3-yl)benzenesulfonamide]
–	–	1 to 100	0.5 to 1	CN(C)CCOc1ncc(-c2ccc3ncc4c(c3c2)C2(CCCC2)C(=O)N4C)cc1NS(=O)(=O)c1ccccc1 [Example 6, N-(2-(2-(Dimethylamino)ethoxy)-5-(3′-methyl-2′-oxo-2′,3′-dihydrospiro[cyclopentane-1,1′-pyrrolo[2,3-c]quinolin]-8′-yl)pyridin-3-yl)benzenesulfonamide]
–	–	1 to 100	< 0.5	COc1ncc(-c2ccc3ncc4c(c3c2)C2(COC2)C(=O)N4C)cc1NS(=O)(=O)c1ccccc1 [Example 8, N-(2-Methoxy-5-(3′-methyl-2′-oxo-2′,3′-dihydrospiro[oxetane-3,1′-pyrrolo[2,3-c]quinolin]-8′-yl)pyridin-3-yl)benzenesulfonamide]
–	–	1 to 100	< 0.5	COc1ncc(-c2ccc3ncc4c(c3c2)C2(CC2)C(=O)N4C)cc1NS(=O)(=O)c1cccc(Cl)c1 [Example 9, 3-Chloro-N-(2-methoxy-5-(3′-methyl-2′-oxo-2′,3′-dihydrospiro [cyclopropane-1,1′-pyrrolo[2,3-c]quinolin]-8′-yl)pyridin-3-yl)benzenesulfonamide]
–	–	1 to 100	< 0.5	CN(C)c1ncc(-c2ccc3ncc4c(c3c2)C2(CCC2)C(=O)N4C)cc1NS(=O)(=O)c1ccccc1 [Example 10, N-(2-(Dimethylamino)-5-(3′-methyl-2′-oxo-2′,3′-dihydrospiro[cyclobutane-1,1′-pyrrolo[2,3-c]quinolin]-8′-yl)pyridin-3-yl)benzenesulfonamide]
1 to 100	–	–	–	CC(C)NCCOc1ncc(-c2ccc3ncc4c(c3c2F)C2(CCC2)C(=O)N4C)cc1NS(C)(=O)=O [Example 556, N-(5-(9′-Fluoro-3′-methyl-2′-oxo-2′,3′-dihydrospiro[cyclobutane-1,1′-pyrrolo[2,3-c]quinolin]-8′-yl)-2-(2-(isopropylamino)ethoxy)pyridin-3-yl)methanesulfonamide hydrochloride]
1 to 100	–	–	–	CN(C)CCCOc1ncc(-c2cc(F)c3ncc4c(c3c2)C2(CCC2)C(=O)N4C)cc1NS(=O)(=O)N(C)C [Example 557, 8′-{6-[3-(Dimethylamino)propoxy]-5-[(dimethylsulfainoyl)amino]pyridin-3-yl}-6′-fluoro-3′-methyl-2′,3′-dihydrospiro [cyclobutane-1,1′-pyrrolo[2,3-c]quinoline]-2′-one]
> 100	–	–	–	CC(C)NCCOc1ncc(-c2cc3c4c(nnc3cc2F)N(C)C(=O)C42CCC2)cc1NS(C)(=O)=O [Example 558, N-(5-(7′-Fluoro-3′-methyl-2′-oxo-2′,3′-dihydrospiro[cyclobutane-1,1′-pyrrolo [2,3-c]cinnolin]-8′-yl)-2-(2-(isopropylamino)ethoxy)pyridin-3-yl)methanesulfonamide]
> 100	–	–	–	COC(=O)c1cc(-c2ccc3ncc4c(c3c2)C2(CCC2)C(=O)N4C)cc(NS(C)(=O)=O)c1OCCCN(C)C [Example 559, Methyl 2-(3-(dimethylamino)propoxy)-5-(3′-methyl-2′-oxo-2′,3′-dihydrospiro[cyclobutane-1,1′-pyrrolo[2,3-c]quinolin]-8′-yl)-3-(methylsulfonamido)benzoate]
1 to 100	–	–	–	CC(C)NCCOc1ncc(-c2cc3c4c(cnc3cc2F)N(C)C(=O)C42CC(F)C2)cc1NS(C)(=O)=O (stereo not drawn) [Example 560, cis-N-(5-(3,7′-Difluoro-3′-methyl-2′-oxo-2′,3′-dihydrospiro[cyclobutane-1,1′-pyrrolo[2,3-c]quinolin]-8′-yl)-2-(2-(isopropylamino)ethoxy)pyridin-3-yl)methanesulfonamide]
1 to 100	–	–	–	CC(C)NCCOc1ncc(-c2ccc3ncc4c(c3n2)C2(CCC2)C(=O)N4C)cc1NS(C)(=O)=O [Example 561, N-(5-[7-Methyl-8-oxo-7,8-dihydrospiro[cyclobutane-1,9-pyrrolo[2,3-c]1,5-naphthyridin]-2-yl]-2-[2-[(propan-2-yl)amino]ethoxy]pyridin-3-yl) methanesulfonamide]
> 100	–	–	–	CC(C)NCCOc1ncc(-c2cc3c4c(cnc3cn2)N(C)C(=O)C42CCC2)cc1NS(C)(=O)=O [Example 562, N-(2-(2-(Isopropylamino)ethoxy)-5-(3′-methyl-2′-oxo-2′,3′-dihydrospiro [cyclobutane-1,1′-pyrrolo[2,3-c] [1,7]naphthyridin]-8′-yl)pyridin-3-yl)methanesulfonamide]
1 to 100	–	–	–	CN(C)CCCOc1c(C#N)cc(-c2ccc3ncc4c(c3c2)C2(CCC2)C(=O)N4C)cc1NS(C)(=O)=O [Example 563, N-(3-Cyano-2-(3-(dimethylamino)propoxy)-5-(3′-methyl-2′-oxo-2′,3′-dihydrospiro[cyclobutane-1,1′-pyrrolo[2,3-c]quinolin]-8′-yl)phenyl)methanesulfonamide]
> 100	–	–	–	CN(C)CCCOc1c(NS(C)(=O)=O)cc(-c2ccc3ncc4c(c3c2)C2(CCC2)C(=O)N4C)cc1C(=O)N(C)C [Example 564, 2-(3-(Dimethylamino)propoxy)-N,N-dimethyl-5-(3′-methyl-2′-oxo-2′,3′-dihydrospiro[cyclobutane-1,1′-pyrrolo[2,3-c]quinolin]-8′-yl)-3-(methylsulfonamido)benzamide]
> 100	–	–	–	CNC(=O)c1cc(-c2ccc3ncc4c(c3c2)C2(CCC2)C(=O)N4C)cc(NS(C)(=O)=O)c1OCCCN(C)C [Example 565, 2-(3-(Dimethylamino)propoxy)-N-methyl-5-(3′-methyl-2′-oxo-2′,3′-dihydrospiro[cyclobutane-1,1′-pyrrolo[2,3-c]quinolin]-8′-yl)-3-(methylsulfonamido)benzamide]
